Source: PubChem BioAssay AID248 (DTP/NCI, 2004)
Inconclusive results and toxic doses are left out. No stated cut-off is given here; in the data, active means T/C of 150% or more; inactive means T/C below 125%.

Test system: L1210 leukemia ip in BDF1 mice, survival T/C
Assay: NCI In Vivo Anticancer Drug Screen. Data for tumor model L1210 Leukemia (intraperitoneal) in B6D2F1 (BDF1) mice
Settings: endpoint: mean survival time, higher = longer survival
Method in brief: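 Survival endpoint. Drug-treated group vs vehicle group, expressed as T divided by C. Tumor passaged by transplantation.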

[1] = dose: 100.0 mg/kg/injection, schedule: Q01DX009 (ip), vehicle: saline with Tween-80
[2] = dose: 100.0 mg/kg/injection, schedule: Q04DX003 (ip), vehicle: saline with Tween-80
[3] = dose: 200.0 mg/kg/injection, schedule: Q01DX009 (ip), vehicle: saline with Tween-80
[4] = dose: 200.0 mg/kg/injection, schedule: Q04DX003 (ip), vehicle: saline with Tween-80
[5] = dose: 400.0 mg/kg/injection, schedule: Q01DX009 (ip), vehicle: saline with Tween-80
[6] = dose: 400.0 mg/kg/injection, schedule: Q04DX003 (ip), vehicle: saline with Tween-80
[7] = dose: 100.0 mg/kg/injection, schedule: Q01DX001 (ip), vehicle: Klucel (hydroxypropylcellulose) (HPC)
[8] = dose: 100.0 mg/kg/injection, schedule: Q04DX003 (ip), vehicle: Klucel (hydroxypropylcellulose) (HPC)
[9] = dose: 200.0 mg/kg/injection, schedule: Q01DX001 (ip), vehicle: Klucel (hydroxypropylcellulose) (HPC)
[10] = dose: 200.0 mg/kg/injection, schedule: Q04DX003 (ip), vehicle: Klucel (hydroxypropylcellulose) (HPC)
[11] = dose: 400.0 mg/kg/injection, schedule: Q01DX001 (ip), vehicle: Klucel (hydroxypropylcellulose) (HPC)
[12] = dose: 400.0 mg/kg/injection, schedule: Q04DX003 (ip), vehicle: Klucel (hydroxypropylcellulose) (HPC)
[13] = dose: 100.0 mg/kg/injection, schedule: Q01DX001 (ip), vehicle: saline
[14] = dose: 200.0 mg/kg/injection, schedule: Q01DX001 (ip), vehicle: saline
[15] = dose: 100.0 mg/kg/injection, schedule: Q01DX009 (ip), vehicle: Klucel (hydroxypropylcellulose) (HPC)

Measured: T/C

OC(c1ccccc1)(c1ccccc1)c1ccc(F)cc1
inactive: [1] 102 % of control | [2] 92 % of control | [3] 101 % of control | [4] 100 % of control | [5] 89 % of control | [6] 87 % of control

CN(C)Cc1ccccc1COC(=O)c1ccc(Br)cc1
inactive: dose: 50.0 mg/kg/injection, schedule: Q04DX002 (ip), vehicle: Klucel (hydroxypropylcellulose) (HPC) 98 % of control | dose: 100.0 mg/kg/injection, schedule: Q04DX002 (ip), vehicle: Klucel (hydroxypropylcellulose) (HPC) 105 % of control | dose: 200.0 mg/kg/injection, schedule: Q04DX002 (ip), vehicle: Klucel (hydroxypropylcellulose) (HPC) 94 % of control

C[N+](C)(Cc1ccccc1)C1c2ccccc2-c2ccccc21
inactive: dose: 0.5 mg/kg/injection, schedule: Q04DX002 (ip), vehicle: Klucel (hydroxypropylcellulose) (HPC) 109 % of control | dose: 1.0 mg/kg/injection, schedule: Q04DX002 (ip), vehicle: Klucel (hydroxypropylcellulose) (HPC) 109 % of control | dose: 2.0 mg/kg/injection, schedule: Q04DX002 (ip), vehicle: Klucel (hydroxypropylcellulose) (HPC) 109 % of control

Cc1ccc(C)c(CCO)c1
inactive: [1] 100 % of control | [2] 97 % of control | [3] 95 % of control | [4] 108 % of control | [5] 91 % of control

CC(C)(C)N1CCC1C(=O)NN (stereo unspecified)
inactive: dose: 50.0 mg/kg/injection, schedule: Q01DX009 (ip), vehicle: saline 96 % of control | dose: 100.0 mg/kg/injection, schedule: Q01DX009 (ip), vehicle: saline 93 % of control | dose: 200.0 mg/kg/injection, schedule: Q01DX009 (ip), vehicle: saline 93 % of control

CC(C)C(=O)Nc1cccc(OC(=O)NC(C)(C)C)c1
inactive: dose: 200.0 mg/kg/injection, schedule: Q01DX001 (ip), vehicle: saline with Tween-80 89 % of control | dose: 400.0 mg/kg/injection, schedule: Q01DX001 (ip), vehicle: saline with Tween-80 87 % of control

FC(F)(F)c1ccc(Cl)c(NC2=NCCS2)c1
inactive: [7] 114 % of control | [8] 97 % of control | [9] 103 % of control | [10] 98 % of control | [11] 97 % of control | [12] 88 % of control

CN=C1CN(O)C(c2ccccc2)=c2cc(Cl)ccc2=N1
inactive: dose: 25.0 mg/kg/injection, schedule: Q01DX009 (ip), vehicle: acetone 96 % of control | dose: 25.0 mg/kg/injection, schedule: Q04DX003 (ip), vehicle: saline 97 % of control | dose: 50.0 mg/kg/injection, schedule: Q01DX009 (ip), vehicle: acetone 90 % of control | dose: 50.0 mg/kg/injection, schedule: Q04DX003 (ip), vehicle: saline 97 % of control | [13] 92 % of control | dose: 100.0 mg/kg/injection, schedule: Q01DX009 (ip), vehicle: acetone 102 % of control | dose: 100.0 mg/kg/injection, schedule: Q04DX003 (ip), vehicle: saline 92 % of control | [14] 96 % of control | dose: 200.0 mg/kg/injection, schedule: Q01DX009 (ip), vehicle: acetone 97 % of control | dose: 200.0 mg/kg/injection, schedule: Q04DX003 (ip), vehicle: saline 97 % of control

O=C(O)CCc1ccc(-c2ccccc2)[nH]1
inactive: [7] 106 % of control | [9] 104 % of control | [11] 106 % of control

O=C1C=C(c2ccccc2)Sc2ccccc2N1
inactive: [2] 97 % of control | [4] 100 % of control | [6] 97 % of control

CN(C)C1c2cc(Cl)ccc2-c2c(N)cc(Cl)cc21 (stereo unspecified)
inactive: dose: 50.0 mg/kg/injection, schedule: Q01DX001 (ip), vehicle: carboxymethylcellulose (CMC) 95 % of control | dose: 100.0 mg/kg/injection, schedule: Q01DX001 (ip), vehicle: carboxymethylcellulose (CMC) 98 % of control | dose: 200.0 mg/kg/injection, schedule: Q01DX001 (ip), vehicle: carboxymethylcellulose (CMC) 98 % of control | dose: 400.0 mg/kg/injection, schedule: Q01DX001 (ip), vehicle: carboxymethylcellulose (CMC) 93 % of control

Cc1cccc(-c2nc3cc(Cl)ccc3c(=O)o2)c1
inactive: [8] 97 % of control | [10] 90 % of control

CSCSCC(CO)NS(=O)(=O)c1ccc(C)cc1 (stereo unspecified)
inactive: [1] 107 % of control | [2] 103 % of control | [3] 109 % of control | [4] 97 % of control | [5] 98 % of control | [6] 102 % of control

O=C(O)COc1cc(OCC(=O)O)c([N+](=O)[O-])cc1[N+](=O)[O-]
inactive: [8] 102 % of control | [10] 102 % of control | [12] 91 % of control

O=C(CC(=O)C(F)(F)C(F)(F)C(F)(F)F)c1csc2ccccc12
inactive: dose: 8.0 mg/kg/injection, schedule: Q01DX015 (ip), vehicle: saline 87 % of control | dose: 12.5 mg/kg/injection, schedule: Q01DX009 (ip), vehicle: saline with Tween-80 109 % of control | dose: 16.0 mg/kg/injection, schedule: Q01DX015 (ip), vehicle: saline 87 % of control | dose: 25.0 mg/kg/injection, schedule: Q01DX009 (ip), vehicle: saline with Tween-80 108 % of control | dose: 32.0 mg/kg/injection, schedule: Q01DX015 (ip), vehicle: saline 87 % of control | dose: 50.0 mg/kg/injection, schedule: Q01DX009 (ip), vehicle: saline with Tween-80 96 % of control | dose: 50.0 mg/kg/injection, schedule: Q04DX003 (ip), vehicle: acetone 101 % of control | [13] 104 % of control | [14] 102 % of control

Nc1c(Cl)cc(C(=O)NC2CC2)cc1Cl
inactive: dose: 6.25 mg/kg/injection, schedule: Q01DX009 (ip), vehicle: Klucel (hydroxypropylcellulose) (HPC) 103 % of control | dose: 12.5 mg/kg/injection, schedule: Q01DX009 (ip), vehicle: Klucel (hydroxypropylcellulose) (HPC) 94 % of control | dose: 25.0 mg/kg/injection, schedule: Q01DX009 (ip), vehicle: Klucel (hydroxypropylcellulose) (HPC) 92 % of control | dose: 25.0 mg/kg/injection, schedule: Q04DX003 (ip), vehicle: Klucel (hydroxypropylcellulose) (HPC) 104 % of control | dose: 50.0 mg/kg/injection, schedule: Q01DX009 (ip), vehicle: Klucel (hydroxypropylcellulose) (HPC) 97 % of control | dose: 50.0 mg/kg/injection, schedule: Q04DX003 (ip), vehicle: Klucel (hydroxypropylcellulose) (HPC) 98 % of control | [15] 100 % of control | [8] 104 % of control

N#CC(Cc1ccccc1)(c1ccccc1)c1ccccc1
inactive: dose: 50.0 mg/kg/injection, schedule: Q01DX001 (ip), vehicle: saline 112 % of control | [13] 114 % of control | [14] 89 % of control | dose: 400.0 mg/kg/injection, schedule: Q01DX001 (ip), vehicle: saline 97 % of control

O=C(/C=C/c1ccccc1)Nc1ccccc1C(F)(F)F
inactive: [15] 98 % of control | dose: 200.0 mg/kg/injection, schedule: Q01DX009 (ip), vehicle: Klucel (hydroxypropylcellulose) (HPC) 104 % of control | dose: 400.0 mg/kg/injection, schedule: Q01DX009 (ip), vehicle: Klucel (hydroxypropylcellulose) (HPC) 101 % of control

CC(=O)OC1C(OC(C)=O)C(OS(=O)(=O)c2ccc(C)cc2)C(OC(C)=O)C(OS(=O)(=O)c2ccc(C)cc2)C1OC(C)=O (stereo unspecified)
inactive: [2] 97 % of control | [4] 92 % of control | [6] 95 % of control
